Experiments:
[1] = system: SipD-antigen-specific IgG; test: Vaccination in chicken with SipD as an antigen, serum IgG ELISA; assay type: in vivo, Leghorn chicken; conditions: triple adjuvant composition (20 μg polyphosphazene: 40 μg IDR-1002: 20 μg Poly(I:C)) with 10 μg SipD, intramuscular, after two immunizations (Week 4), FIG. 1B
Procedure: To assess the adjuvant activity of cyclopolyphosphazene candidates, such as 37, 11 and 39, an in vivo study was conducted with intramuscular administration of a Salmonella typhimurium Cell invasion protein (SipD) vaccine in young chicken. Two-week-old Leghorn chicken were randomly divided into three single adjuvant groups, three triple adjuvant groups and one PBS-adjuvant control group (n=12/group). The single adjuvant groups contained 20 μg PCEP, 11 or 37 polyphosphazene. All triple adjuvants comprised Poly(I:C), IDR-1002 peptide and a polyphosphazene: either PCEP, 37 or 11.
All vaccines were formulated prior to administration and injected in 200 μL intramuscularly in the tail area. Chicken were vaccinated at Day 0 and Day 14 (Week 2) with the same dose. […]
Serum was collected on days 0, 14 and 28 for SipD-antigen-specific IgG ELISAs. […] Plates were read with a Molecular Devices SpectraMax Plus 384 Reader™. Data were expressed as titres, which represent the dilution factor required to generate an absorbance reading two standard deviations above the average value of the negative control, e.g. serum from control chicken receiving no vaccination.

antigen-specific IgG1 = test: Vaccination in mice with ovalbumin as an antigen, serum IgG1 ELISA; assay type: in vivo, Balb/c mice; conditions: triple adjuvant composition (10 μg polyphosphazene: 20 μg IDR-1002: 10 μg Poly(I:C)) with Ova 50 μg or 1 μg, intramuscular, after two immunizations (Week 8), FIGS. 2 and 5
Procedure: (§1) To assess the adjuvant activity of the cyclopolyphosphazene 37, four in vivo studies were conducted with intramuscular administration of an ovalbumin (Ova) vaccine in mice. In the first two studies, the Ova vaccine was either formulated with no adjuvant or with a triple adjuvant (TriAdj). The first two studies compared three different triple adjuvants, all comprising Poly(I:C), IDR-1002 peptide and a polyphosphazene: either PCEP, 37 or 11. The third and fourth studies compared four different triple adjuvants, all comprising Poly(I:C), IDR-1002 peptide and a polyphosphazene: either PCEP, compound 11, compound 37 or compound 39.
(§2) In all studies, mice were randomized to cages such that the various treatment groups were not together in the same cage. All groups received Ova antigen mixed with the adjuvant (or not) just prior to intramuscular administration. All the vaccines were formulated and injected in 50 μL (25 μ/leg). Mice were vaccinated at Day 0 and Day 28 (Week 4) with the same dose.
(§3) In all studies, serum was collected on days 0, 28 and 56 for antigen-specific IgG1 and IgG2a ELISAs. […] Plates were read with a Biorad iMark Microplate Reader™. Data were expressed as titres, which represent the dilution factor required to generate an absorbance reading three standard deviations above the average value of the negative control, e.g. serum from control mice receiving no vaccination. […]

antigen-specific IgG2a = test: Vaccination in mice with ovalbumin as an antigen, serum IgG2a ELISA; assay type: in vivo, Balb/c mice; conditions: triple adjuvant composition (10 μg polyphosphazene: 20 μg IDR-1002: 10 μg Poly(I:C)) with Ova 50 μg or 1 μg, intramuscular, after two immunizations (Week 8), FIGS. 3 and 5
Procedure: as §1, §2, §3

CCCCCCCCCCCC(=O)NCCCCCCNC(=O)C(CCCCN)NC(=O)CCc1ccc(OP2(Oc3ccc(CCC(=O)NC(CCCCN)C(=O)NCCCCCCNC(=O)CCCCCCCCCCC)cc3)=NP(Oc3ccc(CCC(=O)NC(CCCCN)C(=O)NCCCCCCNC(=O)CCCCCCCCCCC)cc3)(Oc3ccc(CCC(=O)NC(CCCCN)C(=O)NCCCCCCNC(=O)CCCCCCCCCCC)cc3)=NP(Oc3ccc(CCC(=O)NC(CCCCN)C(=O)NCCCCCCNC(=O)CCCCCCCCCCC)cc3)(Oc3ccc(CCC(=O)NC(CCCCN)C(=O)NCCCCCCNC(=O)CCCCCCCCCCC)cc3)=N2)cc1 (stereo not drawn) [Compound 37, N,N′,N″,N′″,N″″,N′″″-(((2,2′,2″,22′″,2″″,2′″″-((3,3′,3″,3′″,3″″,3′″″-(((1,3,5,2l5,4l5,6l5-triazatriphosphinine-2,2,4,4,6,6-hexayl)hexakis(oxy))hexakis(benzene-4,1-diyl))hexakis(propanoyl))hexakis(azanediyl))hexakis(6-aminohexanoyl))hexakis(azanediyl))hexakis(hexane-6,1-diyl))hexadodecanamide]
significantly greater response: antigen-specific IgG titres relative to a vaccine without adjuvant [1] | response in IgG1 relative to a vaccine without adjuvant (antigen-specific IgG1) | response in IgG2a relative to a vaccine without adjuvant (antigen-specific IgG2a)
